For one experiment, the target named is T1, human O-GlcNAcase (Homo sapiens, UniProt O60502).
T1 sequence (O60502 1-916): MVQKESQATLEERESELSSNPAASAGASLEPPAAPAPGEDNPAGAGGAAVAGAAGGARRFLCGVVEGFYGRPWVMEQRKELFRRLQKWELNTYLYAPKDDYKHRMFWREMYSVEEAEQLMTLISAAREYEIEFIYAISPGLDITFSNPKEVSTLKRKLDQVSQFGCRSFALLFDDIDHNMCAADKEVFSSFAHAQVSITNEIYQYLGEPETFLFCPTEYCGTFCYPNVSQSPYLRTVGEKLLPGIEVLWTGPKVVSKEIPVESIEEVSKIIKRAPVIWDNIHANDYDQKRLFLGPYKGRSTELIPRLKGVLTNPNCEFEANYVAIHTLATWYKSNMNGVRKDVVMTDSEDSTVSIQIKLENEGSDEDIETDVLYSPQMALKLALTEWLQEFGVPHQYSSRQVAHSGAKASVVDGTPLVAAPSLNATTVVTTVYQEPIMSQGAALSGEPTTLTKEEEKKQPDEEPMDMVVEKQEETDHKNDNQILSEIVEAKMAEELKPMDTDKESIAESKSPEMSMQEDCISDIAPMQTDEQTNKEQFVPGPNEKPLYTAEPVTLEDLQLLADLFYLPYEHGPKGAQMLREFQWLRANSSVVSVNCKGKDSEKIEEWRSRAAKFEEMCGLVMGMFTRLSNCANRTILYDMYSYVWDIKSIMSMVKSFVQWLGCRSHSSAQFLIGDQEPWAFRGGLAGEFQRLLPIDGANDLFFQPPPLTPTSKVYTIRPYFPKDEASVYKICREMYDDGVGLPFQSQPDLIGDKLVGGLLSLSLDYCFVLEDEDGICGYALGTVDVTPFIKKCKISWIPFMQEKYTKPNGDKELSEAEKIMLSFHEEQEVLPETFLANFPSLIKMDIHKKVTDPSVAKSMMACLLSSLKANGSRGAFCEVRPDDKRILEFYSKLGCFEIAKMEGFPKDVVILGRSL
Put plainly: Determination of KI values for inhibition of O-GlcNAcase activity (fluorogenic 4-methylumbelliferyl GlcNAc substrate).
Conditions: not given
The format is biochemical. The procedure:
Assay for Determination of […] for Inhibition of O-GlcNAcase Activity
Experimental procedure for kinetic analyses: Enzymatic reactions were carried out in a reaction containing 50 mM NaH2PO4, 100 mM NaCl and 0.1% BSA (pH 7.0) using 2 mM 4-Methylumbelliferyl N-acetyl-β-D-glucosaminide dihydrate (Sigma M2133) dissolved in ddH2O, as a substrate. The amount of purified human O-GlcNAcase enzyme used in the reaction was 0.7 nM. Test compound of varying concentrations was added to the enzyme prior to initiation of the reaction. The reaction was performed at room temperature in a 96-well plate and was initiated with the addition of substrate. […] The slope of product production was determined for each concentration of compound tested and plotted, using standard curve fitting algorithms for sigmoidal dose response curves. The values for a four parameter logistic curve fit of the data were determined.
What is called Ki is a dissociation constant, usually derived from enzyme kinetics or from competition with a known ligand. Compound `CNC1=N[C@@H]2[C@@H](O)[C@H](O)C(C(C)=O)O[C@@H]2S1` (stereo partly drawn) [Example 38, 1-((3aR,6S,7R,7aR)-6,7-dihydroxy-2-(methylamino)-5,6,7,7a-tetrahydro-3aH-pyrano[3,2-d]thiazol-5-yl)ethanone] showed a Ki of 79 nM. Same read-out and setting: for `CCNC1=N[C@@H]2[C@@H](O)[C@H](O)[C@@H](C(=O)N(C)OC)O[C@@H]2S1` [Example 47, (3aR,5S,6S,7R,7aR)-2-(ethylamino)-6,7-dihydroxy-N-methoxy-N-methyl-5,6,7,7a-tetrahydro-3aH-pyrano[3,2-d]thiazole-5-carboxamide] the value was 3320 nM; for `CCNC1=N[C@@H]2[C@@H](O)[C@H](O)[C@@H](C(=O)N(C)C)O[C@@H]2S1` [Example 51, (3aR,5S,6S,7R,7aR)-2-(ethylamino)-6,7-dihydroxy-N,N-dimethyl-5,6,7,7a-tetrahydro-3aH-pyrano[3,2-d]thiazole-5-carboxamide], 1880 nM.

The experiment is the same for the next values; noted with them: purified human O-GlcNAcase 0.7 nM, 2 mM substrate, pH 7.0, room temperature; Cheng-Prusoff; read-out: Ki.
As to `COc1ccc(CC[C@H](O)[C@H]2O[C@@H]3SC(N(C)C)=N[C@@H]3[C@@H](O)[C@@H]2O)cc1` [Example 23, (3aR,5R,6S,7R,7aR)-2-(dimethylamino)-5-((S)-1-hydroxy-3-(4-methoxyphenyl)propyl)-5,6,7,7a-tetrahydro-3aH-pyrano[3,2-d]thiazole-6,7-diol], the Ki turned out to be 6.4 nM. For `CN(C)C1=N[C@@H]2[C@@H](O)[C@H](O)[C@@H]([C@@H](O)CCc3ccccc3)O[C@@H]2S1` [Example 24, (3aR,5R,6S,7R,7aR)-2-(dimethylamino)-5-((S)-1-hydroxy-3-phenylpropyl)-5,6,7,7a-tetrahydro-3aH-pyrano[3,2-d]thiazole-6,7-diol], the Ki turned out to be 15 nM. On to `CN(C)C1=N[C@@H]2[C@@H](O)[C@H](O)[C@@H]([C@](O)(Cc3ccccc3)C(F)(F)F)O[C@@H]2S1` [Example 25, (3aR,5S,6S,7R,7aR)-2-(dimethylamino)-5-((R)-1,1,1-trifluoro-2-hydroxy-3-phenylpropan-2-yl)-5,6,7,7a-tetrahydro-3aH-pyrano[3,2-d]thiazole-6,7-diol], for which the Ki was 338 nM. On the same count and under the same terms, for `CN(C)C1=N[C@@H]2[C@@H](O)[C@H](O)[C@@H]([C@@](O)(Cc3ccccc3)C(F)(F)F)O[C@@H]2S1` [Example 26, (3aR,5S,6S,7R,7aR)-2-(dimethylamino)-5-(1,1,1-trifluoro-2-hydroxy-3-phenylpropan-2-yl)-5,6,7,7a-tetrahydro-3aH-pyrano[3,2-d]thiazole-6,7-diol] the value was 66 nM. Regarding `COc1ccc(CC[C@](O)([C@H]2O[C@@H]3SC(N(C)C)=N[C@@H]3[C@@H](O)[C@@H]2O)C(F)(F)F)cc1` [Example 30, (3aR,5S,6S,7R,7aR)-2-(dimethylamino)-5-(1,1,1-trifluoro-2-hydroxy-4-(4-methoxyphenyl)butan-2-yl)-5,6,7,7a-tetrahydro-3aH-pyrano[3,2-d]thiazole-6,7-diol], the Ki came to 142 nM. The same measure, in the same setting: the result for `CNC1=N[C@@H]2[C@@H](O)[C@H](O)[C@@H](CC#N)O[C@@H]2S1` [Example 31, 2-((3aR,5R,6S,7R,7aR)-6,7-dihydroxy-2-(methylamino)-5,6,7,7a-tetrahydro-3aH-pyrano[3,2-d]thiazol-5-yl)acetonitrile] reads 1.08 nM; that for `C=CCNC1=N[C@@H]2[C@@H](O)[C@H](O)[C@@H](CC#N)O[C@@H]2S1` [Example 32, 2-((3aR,5R,6S,7R,7aR)-2-(allylamino)-6,7-dihydroxy-5,6,7,7a-tetrahydro-3aH-pyrano[3,2-d]thiazol-5-yl)acetonitrile], 130 nM. With `CN(C)C(=O)CC[C@H]1O[C@@H]2SC(N(C)C)=N[C@@H]2[C@@H](O)[C@@H]1O` [Example 33, 3-((3aR,5R,6S,7R,7aR)-2-(dimethylamino)-6,7-dihydroxy-5,6,7,7a-tetrahydro-3aH-pyrano[3,2-d]thiazol-5-yl)-N,N-dimethylpropanamide], the Ki stood at 311 nM. On the same count and under the same terms, for `CNC(=O)[C@H]1O[C@@H]2SC(NC)=N[C@@H]2[C@@H](O)[C@@H]1O` [Example 35, (3aR,5 S,6S,7R,7aR)-6,7-dihydroxy-N-methyl-2-(methylamino)-5,6,7,7a-tetrahydro-3aH-pyrano[3,2-d]thiazole-5-carboxamide] the value was 845 nM; for `CNC1=N[C@@H]2[C@@H](O)[C@H](O)[C@@H](C(=O)O)O[C@@H]2S1` [Example 36, (3aR,5S,6S,7R,7aR)-6,7-dihydroxy-2-(methylamino)-5,6,7,7a-tetrahydro-3aH-pyrano[3,2-d]thiazole-5-carboxylic acid], 5.5 nM. On to `CNC1=N[C@@H]2[C@@H](O)[C@H](O)[C@@H](C(=O)OC)O[C@@H]2S1` [Example 37, (3aR,5S,6S,7R,7aR)-methyl 6,7-dihydroxy-2-(methylamino)-5,6,7,7a-tetrahydro-3aH-pyrano[3,2-d]-thiazole-5-carboxylate], for which the Ki turned out to be 68 nM. On to `CNC1=N[C@@H]2[C@@H](O)[C@H](O)[C@@H](CCl)O[C@@H]2S1` [Example 39, (3aR,5 S,6S,7R,7aR)-5-(chloromethyl)-2-(methylamino)-5,6,7,7a-tetrahydro-3aH-pyrano[3,2-d]thiazole-6,7-diol], for which the Ki was determined as 0.075 nM. In the case of `CNC1=N[C@@H]2[C@@H](O)[C@H](O)[C@@H](CCN)O[C@@H]2S1` [Example 40, (3aR,5R,6S,7R,7aR)-5-(2-aminoethyl)-2-(methylamino)-5,6,7,7a-tetrahydro-3aH-pyrano[3,2-d]thiazole-6,7-diol], the Ki turned out to be 24 nM.

Take `CNCC[C@H]1O[C@@H]2SC(NC)=N[C@@H]2[C@@H](O)[C@@H]1O` [Example 41, (3aR,5R,6S,7R,7aR)-2-(methylamino)-5-(2-(methylamino)ethyl)-5,6,7,7a-tetrahydro-3aH-pyrano[3,2-d]thiazole-6,7-diol]: the Ki is 8.4 nM. On the same count and under the same terms, for `CNC1=N[C@@H]2[C@@H](O)[C@H](O)[C@@H](C(=O)NC3CC3)O[C@@H]2S1` [Example 42, (3aR,5S,6S,7R,7aR)-N-cyclopropyl-6,7-dihydroxy-2-(methylamino)-5,6,7,7a-tetrahydro-3aH-pyrano[3,2-d]thiazole-5-carboxamide] the value was 987 nM. As for `CNC1=N[C@@H]2[C@@H](O)[C@H](O)[C@@H](C(=O)NC(C)C)O[C@@H]2S1` [Example 43, (3aR,5S,6S,7R,7aR)-6,7-dihydroxy-N-isopropyl-2-(methylamino)-5,6,7,7a-tetrahydro-3aH-pyrano[3,2-d]thiazole-5-carboxamide], the Ki was determined as 588 nM. For the compound `CCNC(=O)[C@H]1O[C@@H]2SC(NC)=N[C@@H]2[C@@H](O)[C@@H]1O` [Example 44, (3aR,5S,6S,7R,7aR)-N-ethy1-6,7-dihydroxy-2-(methylamino)-5,6,7,7a-tetrahydro-3aH-pyrano[3,2-d]thiazole-5-carboxamide], the Ki amounted to 1430 nM. Take `CCN(CC)C(=O)[C@H]1O[C@@H]2SC(NC)=N[C@@H]2[C@@H](O)[C@@H]1O` [Example 45, (3aR,5S,6S,7R,7aR)-N,N-diethyl-6,7-dihydroxy-2-(methylamino)-5,6,7,7a-tetrahydro-3aH-pyrano[3,2-d]thiazole-5-carboxamide]: the Ki came out at 2500 nM. `CCNC1=N[C@@H]2[C@@H](O)[C@H](O)[C@@H](C(=O)NC3CC3)O[C@@H]2S1` [Example 46, (3aR,5S,6S,7R,7aR)-N-cyclopropyl-2-(ethylamino)-6,7-dihydroxy-5,6,7,7a-tetrahydro-3aH-pyrano[3,2-d]thiazole-5-carboxamide]: the Ki turned out to be 1960 nM. `CCNC1=N[C@@H]2[C@@H](O)[C@H](O)[C@@H](C(=O)NC)O[C@@H]2S1` [Example 48, (3aR,5S,6S,7R,7aR)-2-(ethylamino)-6,7-dihydroxy-N-methyl-5,6,7,7a-tetrahydro-3aH-pyrano[3,2-d]thiazole-5-carboxamide]: the Ki turned out to be 370 nM. On to `CCNC1=N[C@@H]2[C@@H](O)[C@H](O)[C@@H](C(=O)NC(C)C)O[C@@H]2S1` [Example 49, (3aR,5S,6S,7R,7aR)-2-(ethylamino)-6,7-dihydroxy-N-isopropyl-5,6,7,7a-tetrahydro-3aH-pyrano[3,2-d]thiazole-5-carboxamide], for which the Ki was found to be 142 nM. Consider `CCNC(=O)[C@H]1O[C@@H]2SC(NCC)=N[C@@H]2[C@@H](O)[C@@H]1O` [Example 50, (3aR,5S,6S,7R,7aR)-N-ethyl-2-(ethylamino)-6,7-dihydroxy-5,6,7,7a-tetrahydro-3aH-pyrano[3,2-d]thiazole-5-carboxamide], for which the Ki was found to be 2880 nM.

The values are drawn from patent US9938299B2, “Glycosidase inhibitors and uses thereof” (MERCK SHARP & DOHME CORP., priority 2012, dated 2018).
